Structures can show the parent of a compound that is named as a salt.
Columns and labels:
human 5-HT6 receptor [1] = target: T1, human 5-HT6 receptor (Homo sapiens, UniProt P50406); test: biochemical
human 5-HT6 receptor [2] = target: T1, human 5-HT6 receptor; test: 5-HT6 receptor binding assay ([3H]-LSD, SPA, membranes of transfected HEK293 cells); conditions: over three experiments

T1 sequence (P50406 whole entry): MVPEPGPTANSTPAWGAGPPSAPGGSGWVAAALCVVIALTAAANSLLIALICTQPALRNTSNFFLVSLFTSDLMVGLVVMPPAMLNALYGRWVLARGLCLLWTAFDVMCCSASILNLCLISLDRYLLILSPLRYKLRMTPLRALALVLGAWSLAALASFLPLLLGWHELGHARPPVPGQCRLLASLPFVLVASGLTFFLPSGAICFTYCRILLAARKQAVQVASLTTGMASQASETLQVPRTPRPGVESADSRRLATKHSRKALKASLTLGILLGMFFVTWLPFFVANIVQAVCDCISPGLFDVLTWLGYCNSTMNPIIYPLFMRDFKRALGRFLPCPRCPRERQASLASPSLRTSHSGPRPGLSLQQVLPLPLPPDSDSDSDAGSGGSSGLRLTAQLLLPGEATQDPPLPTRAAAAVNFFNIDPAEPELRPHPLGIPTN

| Structure (SMILES) | Ki (human 5-HT6 receptor [1]) | Hill coefficient (human 5-HT6 receptor [2]) |
| --- | --- | --- |
| O=S(=O)(c1ccccc1)n1ccc2c(CN3CCNCC3)cccc21 [Example 1, 1-(Phenylsulfonyl)-4-(piperazin-1-ylmethyl)-1H-indole hydrochloride] | 1.8 nM | – |
| NCCc1c[nH]c2ccc(O)cc12 [Example 5-HT, 5-hydroxytryptamine] | – | 0.94 (SD 0.09) |
| CN(C)Cc1cccc2c1ccn2S(=O)(=O)c1ccccc1 [Example 47, N,N-Dimethyl-1-[1-(phenylsulfonyl)-1H-indol-4-yl]methanamine trifluoroacetate] | 3.3 nM | – |
| O=S(=O)(c1ccccc1)n1ccc2c(CN3CCC3)cccc21 [Example 87, 4-Azetidin-1-ylmethyl)-1-(phenylsulfonyl)-1H-indole trifluoroacetate] | 0.9 nM | – |
